Source: patent EP0162545A2, “Enhanced bioconversion processes” (BETZ EUROPE, INC., priority 1984, dated 1985)
Where two headings read alike, the source gives them in different places.

System: E. coli K12 ATCC 25404
Experiment: Continuous culture (chemostat) biomass yield
Format: cell-based, Escherichia coli
Settings: for inhibition of growth at 5 ppm / inhibition of growth at 2 ppm / inhibition of growth at 1 ppm: Escherichia coli, read-out: % From Control
Method: Biomass determinations were by Millipore Filtration using Millipore type H.A. 0.45 µ filters. Samples were centrifuged @ 15,000 x for 10 min., supernatant was filtered through a dried and preweighed filter. The centrifuged pellet was then vortexed in 2 mL of D.I. water and filtered also. Samples were then dried overnight @ 105°C and re-weighed. Biomass was the weight of the dried filter less the tared filter weight.
Glucose determinations were carried out on the centrifuged reactor sample supernatants using glucose enzymatic assay (hexokinase and glucose 6-phosphate dehydrogenase) UV-15 Sigma Chemical Co., St. Louis, MO. (Assay set-up pamphlet accompanies kit). Spectrophotometric measurements were run on a Zeiss PM-6 Spektralphotometer, Carl Zeiss, 7082 Oberkochen, West Germany.
Continuous culture medium was composed of 5 g/1 glucose, 40 mL/1 25 X VBE, and 2.5 mL/1 trace mixture. Bulk medium composed of deionized H20 plus 25X VBE was steam sterilized for 45 min. @ 121°C. Trace mix was autoclaved separately and added aseptically. Glucose was filter sterilized and added last (aseptically).
Bioflo Model C32 Chemostat units (bioreactors) , New Brunswick Scientific, Edison NJ, with a working volume of 1400 mL were utilized for the continuous culture experimentation. pH control on the systems was maintained by Model 5997-20 Horizon pH Controllers. Ingold Sterilizable pH Electrodes, Type 465-35-K9, Andover, MA, were sterilized in place before each run. pH adjustment was by controller addition of sterile 2N NaOH upon demand.
Sterile chemostats vessels were filled to working volume with media seeded with 10 mL of 48 hr. E. coli K12 ATCC 25404 culture grown up overnight in nutrient broth (BBL, Cockeysville, MD) @ 37°C. Reactors were run for 72 hours in the batch mode @ 37°C, and then put into continuous flow. The reactors were run for a minimum of five reactor turnovers before initial sampling to insure a steady state. Sampling was then conducted at a maximum of once/reactor turnover, with a minimum number of 11 reactor turnovers per chemostat run. Both control and BNS containing chemostats were stripped, cleaned and the E. coli culture reestablished (as above) each time before either the BNS concentration or the dilution rate was increased. Eleven reactor turnovers is equivalent to 3.5 days at the highest dilution rate used (minimum time for a chemostat run). Uncoupler Addition to Continuous Culture
BNS stock was composed of 10% BNS, 5% Triton X-114 and 85% carbitol acetate. BNS was diluted in deionized water to the appropriate 10X concentration desired. Breakdown kinetics were measured in a deionized H20/BNS system by spectrophotometric measurement at 320 nm and a BNS half life was determined to be 7 hours. Continuous and separate pumping of uncoupler was by a Masterflex 7552-10 peristalic pump (Cole Parmer, Chicago, IL) through silicon tubing lines into the bioreactor. Feed flow was split 90% organic feed, 10% BNS feed for total flow. New uncoupler feed was made up daily from the previously mentioned stock, since there was only 10% of the original BNS concentration left before the new daily solution of BNS feed was begun. BNS dose of 1, 2 and 5 ppm was based on the total bulk feed. Reservoir solutions were mixed constantly on a Fisher versamix magnetic stir plate at a speed of 0.4/1.0 to prevent settling out of chemical.
Chemostat system parameters were set at pH - 7.0, temper, ature 37°C, aeration 2.0 standard litres per minute (SLPM) and agitation at 300 rpm for all experimentation.
Daily checks were made on system for pH, media flow, NaOH consumption, BNS flow, temperature; agitation speed and aeration rate. Mixed liquor glucose and gravimetric biomass determinations were performed at least 5 times per week. Periodic checks were also made on the organic strength of the influent medium, depending on the frequency of new media make-up.

O=[N+]([O-])C(Br)=Cc1ccccc1 [BNS, beta-bromo-beta-nitrostyrene]
Biomass Yield (1.0 ppm BNS, Dilution Rate 0.068 hr.^-1): 0.268 g cells/g substrate
Biomass Yield (1.0 ppm BNS, Dilution Rate 0.086 hr.^-1): 0.276 g cells/g substrate
Biomass Yield (1.0 ppm BNS, Dilution Rate 0.132 hr.^-1): 0.324 g cells/g substrate
Biomass Yield (2.0 ppm BNS, Dilution Rate 0.066 hr.^-1): 0.273 g cells/g substrate
Biomass Yield (2.0 ppm BNS, Dilution Rate 0.090 hr.^-1): 0.241 g cells/g substrate
Biomass Yield (2.0 ppm BNS, Dilution Rate 0.130 hr.^-1): 0.275 g cells/g substrate
Biomass Yield (5.0 ppm BNS, Dilution Rate 0.070 hr.^-1): 0.287 g cells/g substrate
Biomass Yield (5.0 ppm BNS, Dilution Rate 0.090 hr.^-1): 0.237 g cells/g substrate
Biomass Yield (5.0 ppm BNS, Dilution Rate 0.131 hr.^-1): 0.298 g cells/g substrate
inhibition of growth at 5 ppm (ATCC25404, 0.07 h, 5.0 ppm BNS, Dilution Rate 0.070 hr.^-1): 9.5%
inhibition of growth at 2 ppm (ATCC25404, 0.09 h, 2.0 ppm BNS, Dilution Rate 0.090 hr.^-1): 26.1%
inhibition of growth at 5 ppm (ATCC25404, 0.09 h, 5.0 ppm BNS, Dilution Rate 0.090 hr.^-1): 27.3%
inhibition of growth at 2 ppm (ATCC25404, 0.13 h, 2.0 ppm BNS, Dilution Rate 0.130 hr.^-1): 18.3%
inhibition of growth at 1 ppm (ATCC25404, 1.0 ppm BNS, Dilution Rate 0.068 hr.^-1): 15.2%
inhibition of growth at 1 ppm (ATCC25404, 1.0 ppm BNS, Dilution Rate 0.086 hr.^-1): 15%
inhibition of growth at 1 ppm (ATCC25404, 1.0 ppm BNS, Dilution Rate 0.132 hr.^-1): 3.9%
inhibition of growth at 2 ppm (ATCC25404, 2.0 ppm BNS, Dilution Rate 0.066 hr.^-1): 13.3%
inhibition of growth at 5 ppm (ATCC25404, 5.0 ppm BNS, Dilution Rate 0.131 hr.^-1): 11.5%
